Columns and labels:
[1] = system: adult female subjects with severe postpartum depression (PPD); experiment: Phase 3 PPD study (NCT02978326): safety, TEAEs and NNH; format: in vivo, human
Description: Safety Endpoints: Safety and tolerability of study drug was evaluated by frequency of adverse events; severity, relatedness, and seriousness of adverse events; clinical laboratory measures, vital signs, ECGs; and concomitant medication usage. Suicidality was monitored using the C-SSRS.
Adverse events were coded using Medical Dictionary for Regulatory Activities (MedDRA™) Version 19.1 or higher. […] The incidence of adverse events was also presented by maximum severity and relationship to study drug. Vital signs, clinical laboratory measures, ECG, concomitant medication usage, and C-SSRS data was summarized by treatment, where applicable. Out-of-range safety endpoints could be categorized as low or high, where applicable. Safety data was summarized and examined for possible relationships between subject characteristics and plasma Compound (1) concentrations, as appropriate. Suicidality data collected using the C-SSRS at baseline and at each visit during the active Treatment Period was listed for all subjects. The C-SSRS listings included behavior type and/or category for suicidal ideation and suicidal behavior of the C-SSRS.
Sustained Response or Remission was defined as continued categorization of a Responder/Remitter at both days 15 and 45. Tolerability and safety outcomes included number needed to harm (NNH) for discontinuation due to an AE, as well as individual safety events of interest. NNH was calculated for (1) AEs with incidence ≥2% with Compound (1) and higher rate than placebo, and (2) the proportion of patients in each treatment arm discontinuing the study drug due to an AE. 95% confidence intervals (CIs) were calculated based upon Wilson score intervals.

[2] = system: nondependent, recreational users of CNS depressants; experiment: Abuse potential study, dose selection phase: TEAEs; format: in vivo, human
Description: After a screening period of up to 21 days, eligible participants were randomized 3:1 to receive single escalating doses of Compound (1) (60, 80, or 90 mg) or matching placebo in 3 separate cohorts; Compound (1) was administered during 4 days of inpatient administration (FIG. 30A). Sentinel dosing was employed for each cohort, with one participant randomized to receive Compound (1) and one to receive placebo on Day 1. The remaining 6 participants (Compound (1), 5; placebo, 1) were dosed approximately 24 hours later after monitoring the safety and tolerability endpoints. Dose-escalation cohorts were separated by at least 7 days. If a dose was not well tolerated based on the safety data, doses in subsequent cohorts were to be modified, and Compound (1) dose was not allowed to exceed 90 mg. Participants underwent a 1-day, follow-up visit 7 (±2) days after the end of the treatment and were not permitted to participate in the main study.
For the first part, dose selection, endpoints included the observer-rated Modified Observer's Assessment of Alertness/Sedation (MOAA/S) scores along with safety and tolerability endpoints which included the Columbia-Suicide Severity Rating Scale (C-SSRS), frequency and severity of adverse events (AE) and serious adverse events (SAEs), and changes from baseline in clinical laboratory assessments, vital signs, and electrocardiogram (ECG).
The dose selection safety set included all participants who received 1 dose of Compound (1). The main study qualification safety set included all participants who received ≥1 dose of alprazolam. For the treatment phase, the randomized set included all participants who were randomized and the safety set included all participants who received ≥1 dose of Compound (1) or alprazolam. The completer set included all participants in the randomized set who completed all treatment periods, had sufficient data for evaluation of the primary endpoint, and had ≥1 observation within 2 hours of Tmax for each treatment for Drug Liking VAS scores. […] The PK set included all participants in the treatment phase who received 1 dose of Compound (1) and had 1 PK sample after dosing.

## C[C@@]1(O)CC[C@H]2[C@H](CC[C@@H]3[C@@H]2CC[C@]2(C)[C@@H](C(=O)Cn4cc(C#N)cn4)CC[C@@H]32)C1 [Compound (1), 1-(2-((3R,5R,8R,9R,10S,13S,14S,17S)-3-hydroxy-3,13-dimethylhexadecahydro-1H-cyclopenta[a]phenanthren-17-yl)-2-oxoethyl)-1H-pyrazole-4-carbonitrile]
[1]; 30 mg
  Loss of consciousness or syncope: no reports of loss of consciousness or syncope
  NNH vs placebo: AE leading to treatment discontinuation: 78 (ns)
  NNH vs placebo: Diarrhoea: 28 (ns)
  NNH vs placebo: Dizziness: 46 (ns)
  NNH vs placebo: Dry mouth (Gastrointestinal disorders): 26 (ns)
  NNH vs placebo: Dry mouth (under Infections and infestations): 41 (ns)
  NNH vs placebo: Fatigue: 41 (ns)
  NNH vs placebo: Pain in extremity: 84 (ns)
  NNH vs placebo: Sedation: 20 (ns)
  NNH vs placebo: Somnolence: 23 (ns)
  NNH vs placebo: Upper respiratory tract infection: 16 (ns)
  Overall tolerability: generally well tolerated
[1]; 30 mg (N = 78)
  Diarrhoea: 5 (6.4%) n (%)
  Dizziness: 6 (7.7%) n (%)
  Dry mouth (Gastrointestinal disorders): 3 (3.8%) n (%)
  Dry mouth (listed under Infections and infestations): 3 (3.8%) n (%)
  Fatigue: 3 (3.8%) n (%)
  Pain in extremity: 2 (2.6%) n (%)
  Sedation: 4 (5.1%) n (%)
  Somnolence: 12 (15.4%) n (%)
  Subjects with an AE leading to treatment discontinuation: 1 (1.3%) n (%)
  Upper respiratory tract infection: 6 (7.7%) n (%)
[1]; clinical trial of Example 4
  Patients with a TEAE whose TEAEs were mild and moderate in severity: 94%
[2]; 60 mg (n = 6)
  Any TEAE: 5 (83.3) n (%)
  Asthenopia (TEAE): 0 n (%)
  Blood bilirubin increased (TEAE): 0 n (%)
  Disturbance in attention (TEAE): 0 n (%)
  Dizziness postural (TEAE): 1 (16.7) n (%)
  Euphoric mood (TEAE): 0 n (%)
  Feeling abnormal (TEAE): 0 n (%)
  Feeling hot (TEAE): 0 n (%)
  Feeling of relaxation (TEAE): 0 n (%)
  Headache (TEAE): 1 (16.7) n (%)
  Hunger (TEAE): 0 n (%)
  Hyperhidrosis (TEAE): 0 n (%)
  Irritability (TEAE): 0 n (%)
  Lacrimation increased (TEAE): 0 n (%)
  Mild TEAE: 5 (83.3) n (%)
  Moderate TEAE: 0 n (%)
  Orthostatic HR response increase (TEAE): 1 (16.7) n (%)
  Paresthesia (TEAE): 0 n (%)
  Somnolence (TEAE): 4 (66.7) n (%)
  Toothache (TEAE): 0 n (%)
  Tremor (TEAE): 0 n (%)
  Vision blurred (TEAE): 0 n (%)
  Yawning (TEAE): 0 n (%)
[2]; 80 mg (n = 6)
  Any TEAE: 5 (83.3) n (%)
  Asthenopia (TEAE): 1 (16.7) n (%)
  Blood bilirubin increased (TEAE): 0 n (%)
  Disturbance in attention (TEAE): 1 (16.7) n (%)
  Dizziness postural (TEAE): 2 (33.3) n (%)
  Euphoric mood (TEAE): 1 (16.7) n (%)
  Feeling abnormal (TEAE): 0 n (%)
  Feeling hot (TEAE): 0 n (%)
  Feeling of relaxation (TEAE): 2 (33.3) n (%)
  Headache (TEAE): 0 n (%)
  Hunger (TEAE): 0 n (%)
  Hyperhidrosis (TEAE): 0 n (%)
  Irritability (TEAE): 1 (16.7) n (%)
  Lacrimation increased (TEAE): 0 n (%)
  Mild TEAE: 5 (83.3) n (%)
  Moderate TEAE: 0 n (%)
  Orthostatic HR response increase (TEAE): 0 n (%)
  Paresthesia (TEAE): 1 (16.7) n (%)
  Somnolence (TEAE): 5 (83.3) n (%)
  Toothache (TEAE): 0 n (%)
  Tremor (TEAE): 0 n (%)
  Vision blurred (TEAE): 1 (16.7) n (%)
  Yawning (TEAE): 0 n (%)
[2]; 90 mg
  Moderate TEAEs: one instance of somnolence
[2]; 90 mg (n = 6)
  Any TEAE: 6 (100) n (%)
  Asthenopia (TEAE): 0 n (%)
  Blood bilirubin increased (TEAE): 0 n (%)
  Disturbance in attention (TEAE): 0 n (%)
  Dizziness postural (TEAE): 0 n (%)
  Euphoric mood (TEAE): 4 (66.7) n (%)
  Feeling abnormal (TEAE): 1 (16.7) n (%)
  Feeling hot (TEAE): 0 n (%)
  Feeling of relaxation (TEAE): 1 (16.7) n (%)
  Headache (TEAE): 0 n (%)
  Hunger (TEAE): 0 n (%)
  Hyperhidrosis (TEAE): 1 (16.7) n (%)
  Irritability (TEAE): 1 (16.7) n (%)
  Lacrimation increased (TEAE): 0 n (%)
  Mild TEAE: 5 (83.3) n (%)
  Moderate TEAE: 1 (16.7) n (%)
  Orthostatic HR response increase (TEAE): 0 n (%)
  Paresthesia (TEAE): 0 n (%)
  Somnolence (TEAE): 4 (66.7) n (%)
  Toothache (TEAE): 0 n (%)
  Tremor (TEAE): 1 (16.7) n (%)
  Vision blurred (TEAE): 0 n (%)
  Yawning (TEAE): 1 (16.7) n (%)
[2]; All doses (n = 18)
  Blood bilirubin increased (TEAE): 0 n
  Feeling hot (TEAE): 0 n
  Hunger (TEAE): 0 n
  Lacrimation increased (TEAE): 0 n
  Toothache (TEAE): 0 n

Reference: patent US20240216395A1, “19-NOR C3,3-DISUBSTITUTED C21 -N-PYRAZOLYL STEROID FOR USE IN TREATING MAJOR DEPRESSIVE DISORDER AND […]” (priority 2021, published 2024)
